Assay results taken from publication PMC6151956 (Slas Discovery, 2018).
Values joined by “and” are separate entries in the source; they are usually repeats but may differ in a detail not shown here. Equal entries are not always repeated. Where two headings read alike, the source gives them in different places.

Columns and labels:
BTK in whole blood [1] = target: T1, BTK in whole blood (Homo sapiens, UniProt Q06187); assay: Stability of tirabrutinib-treated whole blood; type: cell-based
[2] = tested on: epidermal growth factor kinase (EGFR); details: cited from earlier work
[3] = tested on: interleukin-2-inducible T-cell kinase (ITK); details: cited from earlier work
TEC [4] = details: cited from earlier work
TEC [5] = details: cited from earlier work; remark: listed apart in the source
[6] = target: Recombinant full-length human BTK (rBTK) (Homo sapiens, UniProt Q06187); assay: TR-FRET BTK occupancy assay on recombinant BTK; type: binding
Sequence of Recombinant full-length human BTK (rBTK) (Q06187 whole entry): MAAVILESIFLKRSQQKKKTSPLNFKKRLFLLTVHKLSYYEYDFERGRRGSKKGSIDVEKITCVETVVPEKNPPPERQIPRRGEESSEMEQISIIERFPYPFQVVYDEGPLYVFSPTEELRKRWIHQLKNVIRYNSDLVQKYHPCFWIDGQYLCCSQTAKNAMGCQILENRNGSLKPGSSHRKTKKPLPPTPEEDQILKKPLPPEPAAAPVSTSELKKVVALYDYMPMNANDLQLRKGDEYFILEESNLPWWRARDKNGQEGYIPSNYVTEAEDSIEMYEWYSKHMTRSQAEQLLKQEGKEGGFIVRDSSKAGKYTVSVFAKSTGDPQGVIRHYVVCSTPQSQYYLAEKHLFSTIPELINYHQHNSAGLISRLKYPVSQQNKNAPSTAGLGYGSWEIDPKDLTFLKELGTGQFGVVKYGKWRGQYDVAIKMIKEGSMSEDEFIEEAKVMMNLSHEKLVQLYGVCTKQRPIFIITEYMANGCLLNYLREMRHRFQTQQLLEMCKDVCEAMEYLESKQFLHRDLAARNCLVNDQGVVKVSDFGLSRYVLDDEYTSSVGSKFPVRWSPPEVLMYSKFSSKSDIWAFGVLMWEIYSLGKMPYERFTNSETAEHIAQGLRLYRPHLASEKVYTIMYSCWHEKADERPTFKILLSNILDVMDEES

BTK in Ramos B cells = BTK in Ramos B cells (Homo sapiens, UniProt Q06187); assay: TR-FRET BTK occupancy assay in Ramos B cells; type: cell-based
Sequence of BTK in Ramos B cells (Q06187 whole entry): as above

BTK in human PBMCs = BTK in human PBMCs (Homo sapiens, UniProt Q06187); assay: TR-FRET BTK occupancy assay in purified human PBMCs from healthy volunteers; type: cell-based
Sequence of BTK in human PBMCs (Q06187 whole entry): as above

BTK in whole blood [7] = target: T1, BTK in whole blood; assay: TR-FRET BTK occupancy assay in whole blood from healthy volunteers; type: cell-based
[8] = target: BTK in BMMCs and PBMCs from patients with CLL (Homo sapiens, UniProt Q06187); type: cell-based; details: 110 nM tirabrutinib, 2 h ex vivo
Sequence of BTK in BMMCs and PBMCs from patients with CLL (Q06187 whole entry): as above

[9] = phase 1 clinical study, cited from earlier work

T1 sequence (Q06187 whole entry): as above

In the case of `CC#CC(=O)N1CCC[C@H]1c1nc(-c2ccc(C(=O)Nc3ccccn3)cc2)c2c(N)nccn12` [acalabrutinib, reference compound], the “BTK occupancy on storage at room temperature” value (BTK in whole blood [1]) is reported as “effect of room temperature storage was also observed”.
For `C=CC(=O)N1CCC[C@@H](n2nc(-c3ccc(Oc4ccccc4)cc3)c3c(N)ncnc32)C1` [ibrutinib], the “BTK selectivity versus EGFR” value [2] is listed as 11 fold, the “BTK selectivity versus ITK” value [3] is listed as 21 fold and the “BTK selectivity versus TEC” value (TEC [4]) is listed as 156 fold. For the same compound, the “Selectivity for BTK over TEC” value (TEC [5]) was 5.6 fold.
For `CC#CC(=O)N1CC[C@@H](n2c(=O)n(-c3ccc(Oc4ccccc4)cc3)c3c(N)ncnc32)C1` [tirabrutinib, Tirabrutinib], the “concentration at which full BTK occupancy was achieved” value (“concentration” for short) [6] was 100 nM, the “concentration” value (BTK in Ramos B cells) was 500 to 1000 nM and the “concentration” value (BTK in human PBMCs) was 500 to 1000 nM. The “concentration” value (BTK in whole blood [7]) was 500 to 1000 nM, the BTK occupancy [8] was ~100% and > 80% and the “BTK occupancy on storage at 4 °C” value (BTK in whole blood [1]; whole blood pretreated 2 h, then stored at 4 °C for up to 48 h) was “maintained at the same level for up to 48 h”. For the same compound, the “BTK occupancy on storage at room temperature” value (BTK in whole blood [1]; whole blood pretreated 2 h, then stored at room temperature (24 h and more)) was “significantly higher target occupancy”, the “response rate in CLL” value ([9]; CLL) was 96% and the “response rate in MCL” value ([9]; MCL) was 92%. For the same compound, the “response in nongerminal center DLBCL” value ([9]; nongerminal center DLBCL) was 35%.
